“Also recorded” adds a separate entry of the source.
Tests used:
[1] = tested on: muscarinic M1-M4 receptors; settings: cited from earlier work
Aβ25-35 treated mice [2] = test: spontaneous alternation in the Y-maze, Aβ25-35 treated mice; format: in vivo, Male Swiss OF-1 mice; settings: hydrochloride
Experimental: Administration schedule: mice received ANAVEX2-73 (0.1-1 mg/kg i.p.) once-a-day between days −7 and −1 and Aβ25-35 (9 nmol i.c.v.) at day 0. Animals were examined between days 7 and 9.
Administration schedule: mice received Aβ25-35 (9 nmol i.c.v.) at day 0 and ANAVEX2-73 (0.1, 0.3 mg/kg i.p.) once-a-day between days 7 and 13. Animals were examined between days 14 and 16.
Administration schedule: mice received ANAVEX2-73 (0.1, 0.3 mg/kg i.p.) and/or donepezil (0.25, 0.5 mg/kg i.p.) once 20 min before Aβ25-35 (9 nmol i.c.v.) at day 0. Animals were examined between days 7 and 9.
Administration schedule: mice received ANAVEX2-73 (0.1, 0.3 mg/kg i.p.) and/or memantine (0.5, 1 mg/kg i.p.) once 20 min before Aβ25-35 (9 nmol i.c.v.) at day 0. Animals were examined between days 7 and 9.
(§1) Male Swiss OF-1 mice (Depré, St Doulchard, France), aged 7-9 weeks and weighing 32±2 g were used in this study. Animals were housed in plastic cages in groups. They had free access to food and water, except during behavioral experiments, and they were kept in a regulated environment (23±1° C., 40-60% humidity) under a 12 h light/dark cycle (light on at 07:00 am). Experiments were carried out between 09:00 am and 05:00 pm, in an experimental room within the animal facility. Mice were habituated 30 min before each experiment. Animal procedures were conducted in adherence with the EU Directive 86-609.
Donepezil (E2020) was from Eisai Tsukuba Research Laboratories (Tsukuba, Japan) and memantine was from Sigma-Aldrich (St Quentin-Fallavier, France). Drugs were solubilized in physiological saline solution and administered intraperitoneally (i.p.) in a volume of 100 μl per 20 g body weight. The amyloid-β[25-35] (Aβ25-35) and scrambled β25-35 (Sc.Aβ) peptides from Genepep (France) were solubilized in distilled water at 3 mg/ml and stored at 20° C. until use. Peptides were aged at 37° C. for 4 days and injected i.c.v. (3 μl per mouse).
(§2) Spatial working memory was examined through the measure of spontaneous alternation performance in the Y-maze. Animals were allowed to explore the Y-shaped maze during 8 min and the number of alternations (consecutive exploration of the 3 arms) and total number of arms entered was recorded.

sodium channel site 2 = settings: screening profile; cited from earlier work
σ2 sites = σ2 sites (Homo sapiens, UniProt Q5BJF2); settings: reported binding analyses; cited from earlier work
σ1 = σ1 (Homo sapiens, UniProt Q99720); settings: believed to bind; cited from earlier work
Aβ25-35 treated mice [3] = test: combination studies in the Aβ25-35 model in mice, all parameters examined; format: in vivo, Male Swiss OF-1 mice; settings: for minimal active dose: each drug, Aβ25-35 model in mice, ip; for efficacy of the drug alone in the combination studies with memantine: single drug, once 20 min before Aβ25-35
Experimental: (a) Administration schedule, (b) Y-maze test; (c) passive avoidance response. Administration schedule: mice received ANAVEX2-73 (0.1, 0.3 mg/kg i.p.) and/or donepezil (0.25, 0.5 mg/kg i.p.) once 20 min before Aβ25-35 (9 nmol i.c.v.) at day 0. Animals were examined between days 7 and 9.
(a) Administration schedule, (b) Y-maze test; (c) passive avoidance response. Administration schedule: mice received ANAVEX2-73 (0.1, 0.3 mg/kg i.p.) and/or memantine (0.5, 1 mg/kg i.p.) once 20 min before Aβ25-35 (9 nmol i.c.v.) at day 0. Animals were examined between days 7 and 9.
The spontaneous alternation (YMT) and passive avoidance (PAT) responses are shown. […] The 100% protection level represents the Sc.Aβ/V group and the 0% level, the Aβ25-35/V group. Only the data with the lowest doses tested are shown.
as §1
(§3) Donepezil (E2020) was from Eisai Tsukuba Research Laboratories (Tsukuba, Japan) and memantine was from Sigma-Aldrich (St Quentin-Fallavier, France). Drugs were solubilized in physiological saline solution and administered intraperitoneally (i.p.) in a volume of 100 μl per 20 g body weight. […] (Aβ25-35) and scrambled β25-35 (Sc.Aβ) peptides from Genepep (France) were solubilized in distilled water at 3 mg/ml and stored at 20° C. until use. Peptides were aged at 37° C. for 4 days and injected i.c.v. (3 μl per mouse).
as §2
(§4) Contextual long-term memory was measured using the step-through type passive avoidance test. During training, animals were placed in the white compartment of the two-compartment apparatus. The step-through latency to enter the dark compartment was recorded and mice received an electric shock (0.1 mA, 3 s). During the retention session, performed 24 h after training, the step-through latency to enter the dark compartement and escape latency, to re-exit, were recorded.

Aβ25-35 treated mice [4] = test: lipid peroxidation in the hippocampus, Aβ25-35 treated mice; format: in vivo, Male Swiss OF-1 mice; settings: hydrochloride
Experimental: Administration schedule: mice received ANAVEX2-73 (0.1-1 mg/kg i.p.) once-a-day between days −7 and −1 and Aβ25-35 (9 nmol i.c.v.) at day 0. Animals were examined between days 7 and 9. Their brain dissected out and assessed for lipid peroxidation (LPO) at day 10.
Administration schedule: mice received Aβ25-35 (9 nmol i.c.v.) at day 0 and ANAVEX2-73 (0.1, 0.3 mg/kg i.p.) once-a-day between days 7 and 13. Animals were examined between days 14 and 16. Their brain dissected out and assessed for lipid peroxidation (LPO) at day 17.
as §1
Tetrahydro-N,N-dimethyl-2,2-diphenyl-3-furanmethanamine hydrochloride (ANAVEX2-73) was synthesized in the laboratory (Anavex Life Sciences, Greece). […] Drugs were solubilized in physiological saline solution and administered intraperitoneally (i.p.) in a volume of 100 μl per 20 g body weight. The amyloid-β[25-35] (Aβ25-35) and scrambled β25-35 (Sc.Aβ) peptides from Genepep (France) were solubilized in distilled water at 3 mg/ml and stored at 20° C. until use. Peptides were aged at 37° C. for 4 days and injected i.c.v. (3 μl per mouse).
Mouse hippocampus was homogenized in cold methanol, centrifuged at 1,000 g 5 min and supernatant collected. Homogenate was added to a solution of FeSO4 1 mM, H2SO4 0.25 M, xylenol orange 1 mM and incubated for 30 min at RT. Absorbance was measured at 580 nm (A5801), and 10 μl of cumene hydroperoxide (CHP) 1 mM was added and incubated for 30 min at RT. Absorbance was measured at 580 nm (A5802). Lipid peroxidation was determined as CHP equivalents: CHP eq.=A5801/A5802×[CHP (nmol)]×dilution, and expressed as percentage of the Sc.Aβ/V-treated group value.

Aβ25-35 treated mice [5] = test: step-through passive avoidance, Aβ25-35 treated mice; format: in vivo, Male Swiss OF-1 mice; settings: hydrochloride
Experimental: as §1, §3, §4

Aβ25-35 treated mice [6] = settings: cited from earlier work
[7] = delayed administration: 0.3 mg/kg ip (FIG. 2: 0.1, 0.3) once a day day 7 to 13 after Aβ25-35, measured 14 days after Aβ25-35, 0.3 mg/kg
[8] = early administration: 0.1, 0.3 mg/kg ip (FIG. 1: 0.1-1) once a day day -7 to -1 before Aβ25-35 (day 0), 7 days after Aβ25-35
[9] = administered before the Aβ25-35 peptide
[10] = mice one week after icv Aβ25-35 (Villard et al. 2011)

σ2 sites, sequence (Q5BJF2 whole entry): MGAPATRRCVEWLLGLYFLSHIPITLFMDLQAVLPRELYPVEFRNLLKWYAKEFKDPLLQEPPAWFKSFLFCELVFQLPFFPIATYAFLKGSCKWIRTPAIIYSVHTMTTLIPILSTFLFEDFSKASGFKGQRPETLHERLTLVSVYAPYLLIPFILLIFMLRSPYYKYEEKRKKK
σ1, sequence (Q99720 whole entry): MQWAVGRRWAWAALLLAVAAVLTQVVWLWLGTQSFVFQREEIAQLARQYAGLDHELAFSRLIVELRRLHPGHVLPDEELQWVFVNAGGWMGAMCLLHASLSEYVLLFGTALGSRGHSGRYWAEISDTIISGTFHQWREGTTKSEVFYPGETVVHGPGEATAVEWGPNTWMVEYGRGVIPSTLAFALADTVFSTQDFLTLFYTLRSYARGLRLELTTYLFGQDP

Q: Which “affinity for muscarinic acetylcholine receptors” value ([1]; believed to bind) does the source give for `CN(C)CC1CCOC1(c1ccccc1)c1ccccc1.Cl` (stereo not shown) [ANAVEX2-73, Tetrahydro-N,N-dimethyl-2,2-diphenyl-3-furanmethanamine hydrochloride] here?
A: low micromolar range

Q: And the IC50 ([1]; screening profile, range over M1-M4)?
A: 3.3 to 5.2 µM

Q: What about the “Aβ25-35-induced memory deficits, spontaneous alternation in the Y maze” value (Aβ25-35 treated mice [2]; [7]) of the same compound?
A: significant attenuations; also recorded: effective

Q: What about the “Aβ25-35-induced memory deficits, spontaneous alternation in the Y maze” value (Aβ25-35 treated mice [2]; [8]) of the same compound?
A: significantly prevented; also recorded: blocked

Q: What about the IC50 (sodium channel site 2) of the same compound?
A: 5.1 µM

Q: What about the “affinity for σ2 sites” value (σ2 sites) of the same compound?
A: no affinity

Q: What about the “affinity for sigma-1 receptors” value (σ1) of the same compound?
A: low micromolar range

Q: And the minimal active dose (Aβ25-35 treated mice [3])?
A: 0.1 mg/kg

Q: What about the “efficacy of the drug alone in the combination studies with memantine” value (Aβ25-35 treated mice [3]) of the same compound?
A: therapeutic efficacy

Q: What about the “Aβ25-35-induced lipid peroxidation increase (toxicity)” value (Aβ25-35 treated mice [4]; [7]) of the same compound?
A: significant attenuations; also recorded: effective

Q: And the “Aβ25-35-induced lipid peroxidation in the hippocampus (toxicity)” value (Aβ25-35 treated mice [4]; [8])?
A: significantly prevented; also recorded: blocked

Q: What about the “Aβ25-35-induced memory deficits, passive avoidance response” value (Aβ25-35 treated mice [5]; [7]) of the same compound?
A: significant attenuations; also recorded: effective

Q: What about the “Aβ25-35-induced memory deficits, passive avoidance response” value (Aβ25-35 treated mice [5]; [8]) of the same compound?
A: significantly prevented; also recorded: blocked

Q: And the “Aβ25-35-induced P-Akt decrease” value (Aβ25-35 treated mice [6]; Lahmy et al. 2013)?
A: blocked

Q: And the “Aβ25-35-induced P-GSK-3β increase” value (Aβ25-35 treated mice [6]; Lahmy et al. 2013)?
A: blocked

Q: And the “dose preventing hippocampal cell loss” value (Aβ25-35 treated mice [6]; [9])?
A: 0.3 to 1 mg/kg

Q: And the “dose preventing oxidative stress” value (Aβ25-35 treated mice [6]; [9])?
A: 0.3 to 1 mg/kg

Q: What about the “dose preventing the appearance of Aβ25-35-induced learning deficits” value (Aβ25-35 treated mice [6]; [9]) of the same compound?
A: 0.03 mg/kg

Q: What about the “hyperphosphorylation of Tau on pathological epitopes (AT-100 clone)” value (Aβ25-35 treated mice [6]; in the dose-range tested) of the same compound?
A: attenuated

Q: And the “hyperphosphorylation of Tau on physiological epitopes (AT-8 antibody clone)” value (Aβ25-35 treated mice [6]; in the dose-range tested)?
A: attenuated

Q: And the caspases induction (Aβ25-35 treated mice [6]; [10])?
A: attenuating

Q: What about the cellular loss (Aβ25-35 treated mice [6]; [10]) of the same compound?
A: attenuating

Q: And the “learning and memory deficits” value (Aβ25-35 treated mice [6]; [10])?
A: attenuating

Q: What about the oxidative stress (Aβ25-35 treated mice [6]; [10]) of the same compound?
A: attenuating

Q: And the “Aβ25-35-induced endogenous Aβ1-42 seeding” value (Aβ25-35 treated mice [6]; mouse, in vivo)?
A: decreasing

Q: And the “reversing the learning impairments” value (Aβ25-35 treated mice [6]; one week after icv injection of Aβ25-35 peptide)?
A: effective

Q: For `CC12CC3CC(C)(C1)CC(N)(C3)C2` [memantine, Memantine, reference compound], which “efficacy of the drug alone in the combination studies with memantine” value (Aβ25-35 treated mice [3]) is on record?
A: therapeutic efficacy

Q: With Donepezil [reference compound] as the compound, how does the minimal active dose (Aβ25-35 treated mice [3]) read?
A: 0.25 mg/kg

— patent US9750746B2 (priority 2013, dated 2017)
